Experimental data as given in patent publication US20100061994A1, “MEDICAL USES OF 39-DESMETHOXYRAPAMYCIN AND ANALOGUES THEREOF” (priority 2005, published 2010).

Experiments:
NCI 60 cell line panel = NCI 60 cell line panel monolayer proliferation assay (Protocol 2, SRB) with COMPARE analysis; format: cell-based, human; conditions: with the exception of one cell line
Procedure: The COMPARE analysis uses a Pearson analysis to compare the activity of two compounds on the NCI 60-cell line panel and produces a correlation coefficient which indicates how similar the two compounds spectra of activity are and this may indicate how related their mechanism's of action are.
The human tumor cell lines of the National Cancer Institute (NCI) cancer screening panel were grown in RPMI 1640 medium containing 5% fetal bovine serum and 2 mM L-glutamine (Boyd and Paull, 1995). Cells were inoculated into 96 well microtiter plates in 0.1 mL at plating densities ranging from 5,000 to 40,000 cells/well depending on the doubling time of individual cell lines. […]
Following drug addition, the plates were incubated for an additional 48 h at 37° C., 5% CO2, 95% air, and 100% relative humidity. […] Bound stain was subsequently solubilized with 10 mM trizma base, and the absorbance was read on an automated plate reader at a wavelength of 515 nm. […] Using the seven absorbance measurements [time zero, (Tz), control growth, (C), and test growth in the presence of drug at the five concentration levels (Ti)], the percentage growth was calculated at each of the drug concentrations levels. Percentage growth inhibition was calculated as:
Three dose response parameters were calculated for each experimental agent. […] The drug concentration resulting in total growth inhibition (TGI) was calculated from Ti=Tz. […]

[1] = mouse, in vivo
Procedure: (§6) The test compounds were prepared in a vehicle consisting of 4% Ethanol, 5% Tween-20, 5% polyethyleneglycol 400 in 0.15M NaCl. A single dbse of 10 mg/kg p.o. or 3 mg/kg i.v. was administered to groups of female CD1 mice (3 mice for each compound per time point). At 0 min, 4 min, 15 min, 1 h, 4 h, and 24 h groups were sacrificed and the blood and the brain were collected from each mouse for further analysis.
(§7) The brain samples were snap frozen in liquid nitrogen and stored at −20° C. A minimum of 0.2 mL of whole blood from each animal was collected in tubes containing ethylene diamine tetra-acetic acid (EDTA) as anticoagulant, thoroughly mixed, and stored at −20° C.
(§8) Analysis was performed by ASI Limited, (St George's Hospital Medical School, London). The concentration of the test compound in the blood and brain samples supplied was determined by HPLC with MS detection. Control, test compound free, blood samples were obtained from Harlan Sera-Lab Limited, (Loughborough, England). Time zero brain samples were supplied as control, test compound free, brain samples.
(§9) One hemisphere of each brain was homogenized with 5 mL water.
(§10) The control or test sample of mouse brain or blood (0.05 mL), internal standard solution (0.1 mL), 5% Zinc sulphate solution (0.5 mL), and acetone (0.5 mL) were pipetted into a 2 mL polypropylene tube (Sarstedt Limited, Beaumont Leys, Leicester, UK) and the contents were then mixed for a minimum of 5 minutes (IKA-Vibrax-VXR mixer, Merck (BDH) Limited, Poole Dorset, UK). The tubes were then centrifuged in a microfuge for a minimum of 2 minutes. The solvent layer was decanted into a 4.5 mL polypropylene tube containing sodium hydroxide (0.1M, 0.1 mL) and methyl-tert-butyl ether (MTBE, 2 mL). The tube was then mixed for a minimum of 5 minutes (IKA-Vibrax-VXR mixer) and then centrifuged at 3500 rpm for 5 minutes. The solvent layer was transferred to a 4.5 mL conical polypropylene tube, placed in a SpeedVac® and evaporated to dryness.
(§11) The dried extracts were reconstituted with 0.15 mL 80% methanol and mixed for a minimum of 5 minutes (IKA-Vibrax-VXR mixer) and centrifuged at 3500 rpm for 5 minutes. The extract was transferred to auto sampler tubes (NLG Analytical, Adelphi Mill, Bollington, Cheshire, UK) and placed into the auto-sampler tray which was set at ambient temperature. The auto-sampler was programmed to inject a 0.03 mL aliquot of each extract onto the analytical column.
(§12) The AUC for each compound in blood or in brain tissue was calculated using Kinetica 4.4 (InnaPhase Corporation), using a non-compartmental model and the trapezoidal method for AUC calculation.
(§13) The partition coefficient (Ri) for each compound after p.o. and i.v. administration was calculated as shown below:
(§14) The partition coefficient (R) for each compound after i.v. administration was calculated as shown below:

MCF7 = assay: Monolayer proliferation assay Protocol 1 (propidium iodide); format: cell-based, human; conditions: 4 days, mean of duplicate experiments
Procedure: (§1) In vitro evaluation of compounds for anticancer activity in a panel of 12 human tumour cell lines in a monolayer proliferation assay were carried out at the Oncotest Testing Facility, Institute for Experimental Oncology, Oncotest GmbH, Freiburg.
(§2) A modified propidium iodide assay was used to assess the effects of the test compound(s) on the growth of twelve human tumor cell lines (Dengler et al, 1995).
(§3) Briefly, cells were harvested from exponential phase cultures by trypsinization, counted and plated in 96 well flat-bottomed microtitre plates at a cell density dependent on the cell line (5-10.000 viable cells/well). […] Each concentration was plated in triplicate. 39-Desmethoxyrapamycin was applied in two concentrations (0.001 mM and 0.01 mM).
(§4) Growth inhibition was expressed as treated/control×100 (% TIC). For active compounds, IC50 & IC70 values were estimated by plotting compound concentration versus cell viability.
(§5) In vitro evaluation of 39-desmethoxyrapamycin for anticancer activity in a panel of 12 human tumour cell lines in a monolayer proliferation assay was carried out as described as Protocol 1 in the general methods above using a modified propidium iodide assay.

A498 = assay: as above; format: cell-based, human; conditions: 4 days, mean of duplicate experiments
Procedure: as §1, §2, §3, §4, §5

1138L = assay: as above; format: cell-based, human; conditions: 4 days, mean of duplicate experiments
Procedure: as §1, §2, §3, §4, §5

OVCAR3 = assay: as above; format: cell-based, human; conditions: 4 days, mean of duplicate experiments
Procedure: as §1, §2, §3, §4, §5

LNCAP = assay: as above; format: cell-based, human; conditions: 4 days, mean of duplicate experiments
Procedure: as §1, §2, §3, §4, §5

H460 = assay: as above; format: cell-based, human; conditions: 4 days, mean of duplicate experiments
Procedure: as §1, §2, §3, §4, §5

394NL = assay: as above; format: cell-based, human; conditions: 4 days, mean of duplicate experiments
Procedure: as §1, §2, §3, §4, §5

[2] = Pharmacokinetic analysis Protocol 1 (blood and brain); conditions: female, CD1, mouse, 3 mg/kg
Procedure: as §6, §7, §8, §9, §10, §11, §12, §13, §14

| Compound | Test/Control (%) at drug concentration (MCF7; MCF7, 1 μM) [%] | Test/Control (%) at drug concentration (MCF7; MCF7, 10 μM) [%] | Test/Control (%) at drug concentration (A498; A498, 1 μM) [%] | Test/Control (%) at drug concentration (A498; A498, 10 μM) [%] | Test/Control (%) at drug concentration (1138L; 1 μM) [%] | Test/Control (%) at drug concentration (1138L; 10 μM) [%] | Test/Control (%) at drug concentration (OVCAR3; OVCAR3, 1 μM) [%] | Test/Control (%) at drug concentration (OVCAR3; OVCAR3, 10 μM) [%] | Test/Control (%) at drug concentration (LNCAP; 1 μM) [%] | Test/Control (%) at drug concentration (LNCAP; 10 μM) [%] | Test/Control (%) at drug concentration (H460; H460, 1 μM) [%] | Test/Control (%) at drug concentration (394NL; 1 μM) [%] | Test/Control (%) at drug concentration (394NL; 10 μM) [%] | also measured |
| --- | --- | --- | --- | --- | --- | --- | --- | --- | --- | --- | --- | --- | --- | --- |
| COC1CC2CCC(C)C(O)(O2)C(=O)C(=O)N2CCCCC2C(=O)OC(C(C)CC2CCC(O)CC2)CC(=O)C(C)C=C(C)C(O)C(OC)C(=O)C(C)CC(C)C=CC=CC=C1C (stereo not shown) [39-desmethoxyrapamycin] | 92.5 | 18.5 | 62.5 | 43.5 | 52 | 9.5 | 77.5 | 62 | 74.5 | 28.5 | 71 | 48 | 40.5 | efficacy against high MDR-expressing cell lines when compared to rapamycin (NCI 60 cell line panel): equivalent or improved efficacy; AUCBLOOD i.v. ([1]; iv, 3 mg/kg): 15444.3; AUCBRAIN i.v. ([1]; iv, 3 mg/kg): 24911.4; AUCBLOOD p.o. ([1]; po, 10 mg/kg): 16856.5; AUCBRAIN p.o. ([1]; po, 10 mg/kg): 1697.69; Test/Control (%) at drug concentration (H460; H460, 10 μM): 55.5% |
| CO[C@H]1C[C@@H]2CC[C@@H](C)[C@@](O)(O2)C(=O)C(=O)N2CCCC[C@H]2C(=O)O[C@H]([C@H](C)C[C@@H]2CC[C@@H](O)[C@H](OC)C2)CC(=O)[C@H](C)/C=C(\C)[C@@H](O)[C@@H](OC)C(=O)[C@H](C)C[C@H](C)/C=C/C=C/C=C/1C [Rapamycin] | 68.5 | 26.5 | 58.5 | 48.5 | 42 | 21.5 | 69 | 69.5 | 61 | 34 | 67 | 45 | 44 | Kp ([2]; brain / whole blood, intravenous): 1.13; AUC ([2]; whole blood, iv): 10800 ng·h/mL |
